Values quoted from earlier work, collected in US20210069110A1, “NON-AQUEOUS COMPOSITION HAVING DRUG CARRIED THEREIN, AND METHOD FOR PRODUCING SAME” (Techno Guard Co. Ltd., priority 2017, published 2021).

Settings: General Notice of Japanese Pharmacopoeia

Water solubility of drug (Expression in Japanese Pharmacopoeia), Practically insoluble:
CC(=O)O[C@H]1C(=O)[C@@]2(C)[C@H]([C@H](OC(=O)c3ccccc3)[C@]3(O)C[C@H](OC(=O)[C@H](O)[C@@H](NC(=O)c4ccccc4)c4ccccc4)C(C)=C1C3(C)C)[C@]1(OC(C)=O)CO[C@@H]1C[C@@H]2O [Paclitaxel], CC(=O)O[C@@]12CO[C@@H]1C[C@H](O)[C@@]1(C)C(=O)[C@H](O)C3=C(C)[C@@H](OC(=O)[C@H](O)[C@@H](NC(=O)OC(C)(C)C)c4ccccc4)C[C@@](O)([C@@H](OC(=O)c4ccccc4)[C@H]21)C3(C)C [Docetaxel], CO[C@H]1C(=O)[C@]2(C)[C@@H](OC)C[C@H]3OC[C@@]3(OC(C)=O)[C@H]2[C@H](OC(=O)c2ccccc2)[C@]2(O)C[C@H](OC(=O)[C@H](O)[C@@H](NC(=O)OC(C)(C)C)c3ccccc3)C(C)=C1C2(C)C [Cabazitaxel], CCCCC[C@H](O)/C=C/[C@H]1[C@H](O)CC(=O)[C@@H]1CCCCCCC(=O)O [Prostaglandin E1]
